Measurements taken from paper PMC8177097 (FEBS letters, 2020).

Key:
lipocalin Blc (wtBlc) [1] = target: T1, lipocalin Blc (wtBlc) (Escherichia coli, UniProt P0A901); test: tryptophan fluorescence quenching titration; assay type: binding
T1 sequence (P0A901 19-177): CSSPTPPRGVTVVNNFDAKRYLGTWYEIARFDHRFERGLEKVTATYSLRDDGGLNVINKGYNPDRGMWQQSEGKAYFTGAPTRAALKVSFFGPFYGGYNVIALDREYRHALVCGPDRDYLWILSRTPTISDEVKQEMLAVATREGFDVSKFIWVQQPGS

lipocalin Blc (wtBlc) [2] = target: T1, lipocalin Blc (wtBlc); test: spectrophotometric hemin titration; assay type: binding

| SMILES | Kd (lipocalin Blc (wtBlc) [1]) [nM] | Kd (lipocalin Blc (wtBlc) [2]) [nM] |
| --- | --- | --- |
| CC1=C(CCC(=O)O)c2cc3[nH]c(cc4nc(cc5[nH]c(cc1n2)c(C)c5C(C)O)C(C)=C4C(C)O)c(C)c3CCC(=O)O (centres unmarked) [HP, hematoporphyrin] | 0.14 ± 0.1 | – |
| C=CC1=C(C)C2=Cc3c(C=C)c(C)c4[n]3[Fe][n]3c(c(C)c(CCC(=O)O)c3=CC3=NC(=C4)C(C)=C3CCC(=O)O)=CC1=N2 [heme] | – | 1400 ± 300 |
